Reference: patent US11180494B2, “Substituted amino acids as integrin inhibitors” (Pliant Therapeutics, Inc., priority 2018, dated 2021)

Biological target: human integrin αvβ6 (Homo sapiens (Human), UniProt P06756+P18564)
Assay: Proximity-based integrin receptor binding assay (ALPHASCREEN) for inhibitor potency
Conditions: inhibition of binding of TGF-b1 LAP to human integrin αvβ6; values given in ranges
Experimental: To gauge the potency of inhibitors of binding to human integrin αvβ6, inhibitor compounds and integrin were incubated together with TGF-b1 LAP and biotinylated anti-LAP antibody plus acceptor and donor beads, following the manufacture's recommendations. The donor beads were coated with streptavidin. […] All incubations occurred at room temperatures in 50 mM Tris-HCl, pH 7.5, 0.1% BSA supplemented with 1 mM each CaCl2 and MgCl2.
The order of reagent addition was as follows:
1. Alpha-v-beta-6 integrin, test inhibitor compound, LAP, biotinylated anti-LAP antibody and acceptor beads were all added together.
2. After 2 hours, donor beads were added. After another 30 minute incubation, samples were then read.
Integrin binding was evaluated by exciting donor beads at 680 nm, and measuring the fluorescent signal produced, between 520-620 nm, using a Biotek Instruments (Winooski, Vt., USA) SynergyNeo2 multimode plate reader. […] Data analysis for IC50 determinations was carried out by nonlinear four parameter logistic regression analysis using Dotmatics ELN Software (Core Informatics Inc., Branford, Conn.).

Sequence of human integrin αvβ6 (P06756 31-992): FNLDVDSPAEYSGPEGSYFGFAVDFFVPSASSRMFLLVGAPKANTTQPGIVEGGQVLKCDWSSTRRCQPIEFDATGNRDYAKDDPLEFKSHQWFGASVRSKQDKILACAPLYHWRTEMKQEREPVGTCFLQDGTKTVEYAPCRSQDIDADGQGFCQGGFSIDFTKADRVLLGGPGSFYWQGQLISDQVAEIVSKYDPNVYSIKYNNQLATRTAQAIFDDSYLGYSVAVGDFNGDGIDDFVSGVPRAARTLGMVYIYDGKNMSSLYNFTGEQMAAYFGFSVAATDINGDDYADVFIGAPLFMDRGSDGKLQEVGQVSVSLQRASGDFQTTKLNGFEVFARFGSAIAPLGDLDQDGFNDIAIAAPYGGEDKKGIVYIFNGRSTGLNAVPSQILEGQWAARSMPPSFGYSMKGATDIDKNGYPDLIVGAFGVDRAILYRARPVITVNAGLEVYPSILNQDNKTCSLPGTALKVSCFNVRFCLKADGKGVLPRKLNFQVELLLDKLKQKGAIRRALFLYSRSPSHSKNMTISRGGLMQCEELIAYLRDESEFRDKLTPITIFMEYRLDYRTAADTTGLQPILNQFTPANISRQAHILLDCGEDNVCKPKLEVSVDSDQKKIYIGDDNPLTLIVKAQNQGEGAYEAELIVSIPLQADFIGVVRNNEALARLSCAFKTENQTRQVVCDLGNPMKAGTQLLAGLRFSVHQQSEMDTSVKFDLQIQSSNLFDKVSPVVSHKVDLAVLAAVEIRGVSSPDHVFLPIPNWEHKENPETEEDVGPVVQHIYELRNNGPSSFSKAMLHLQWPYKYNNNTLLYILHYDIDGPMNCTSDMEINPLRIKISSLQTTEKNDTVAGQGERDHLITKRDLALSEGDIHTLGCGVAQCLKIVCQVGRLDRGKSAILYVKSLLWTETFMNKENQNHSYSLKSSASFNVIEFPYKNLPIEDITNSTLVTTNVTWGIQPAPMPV
Sequence of human integrin αvβ6 (P18564 22-707): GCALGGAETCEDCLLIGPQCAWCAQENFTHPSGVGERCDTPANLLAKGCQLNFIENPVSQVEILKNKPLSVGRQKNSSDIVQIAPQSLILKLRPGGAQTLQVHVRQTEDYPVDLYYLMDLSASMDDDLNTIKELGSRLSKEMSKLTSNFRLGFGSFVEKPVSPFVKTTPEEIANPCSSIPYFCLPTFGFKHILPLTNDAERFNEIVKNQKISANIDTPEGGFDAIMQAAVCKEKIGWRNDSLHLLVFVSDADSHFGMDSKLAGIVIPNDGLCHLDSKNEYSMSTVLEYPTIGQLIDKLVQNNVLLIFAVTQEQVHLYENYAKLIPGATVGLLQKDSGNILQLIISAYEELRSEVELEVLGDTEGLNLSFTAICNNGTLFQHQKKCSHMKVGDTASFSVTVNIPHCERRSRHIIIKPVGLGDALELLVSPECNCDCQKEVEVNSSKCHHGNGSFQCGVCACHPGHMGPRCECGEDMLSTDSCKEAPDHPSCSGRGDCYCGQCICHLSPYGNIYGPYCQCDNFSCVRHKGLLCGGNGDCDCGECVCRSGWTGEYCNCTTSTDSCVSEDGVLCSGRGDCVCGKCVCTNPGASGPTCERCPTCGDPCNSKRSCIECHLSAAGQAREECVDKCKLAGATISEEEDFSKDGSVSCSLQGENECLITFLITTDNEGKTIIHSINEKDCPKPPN

| IC50 [nM] | Compound |
| --- | --- |
| < 50 | O=C(NC(CCOCCCCc1ccc2c(n1)NCCC2)C(=O)O)c1cccc(F)c1Cl (racemic) [Compound 1, N-(2-chloro-3-fluorobenzoyl)-O-(4-(5,6,7,8-tetrahydro-1,8-naphthyridin-2-yl)butyl)homoserine] |
| > 1000 | O=C(N[C@@H](CCO[C@H]1C[C@H](CCc2ccc3c(n2)NCCC3)C1)C(=O)O)C1CCc2ccccc21 (single isomer, unassigned) [95*,†] |
| 250 to 1000 | O=C(N[C@@H](CCO[C@H]1C[C@H](CCc2ccc3c(n2)NCCC3)C1)C(=O)O)C1CCc2ccccc21 (single isomer, unassigned) [96*,††] |
| 50 to 250 | O=C(N[C@@H](CCO[C@H]1C[C@H](CCc2ccc3c(n2)NCCC3)C1)C(=O)O)C1CCc2ccccc21 (single isomer, unassigned) [110**,†] |
| < 50 | O=C(N[C@@H](CCO[C@H]1C[C@H](CCc2ccc3c(n2)NCCC3)C1)C(=O)O)C1CCc2ccccc21 (single isomer, unassigned) [111**,††] |
| < 50 | CCC(CC(F)F)C(=O)NC(CCO[C@H]1C[C@H](CCc2ccc3c(n2)NCCC3)C1)C(=O)O (single isomer, unassigned) [Example 162b, N-(-2-ethyl-4,4-difluorobutanoyl)-O-(trans-3-(2-(5,6,7,8-tetrahydro-1,8-naphthyridin-2-yl)ethyl)cyclobutyl)homoserine] |
| > 1000 | Cn1ncc2c(C(=O)NC(CCOCCCCc3ccc4c(n3)NCCC4)C(=O)O)cccc21 (centres unmarked) [Compound 4, N-(1-methyl-1H-indazole-4-carbonyl)-O-(4-(5,6,7,8-tetrahydro-1,8-naphthyridin-2-yl)butyl)homoserine] |
| 50 to 250 | CCC(CC)C(=O)NC(CCOCCCCc1ccc2c(n1)NCCC2)C(=O)O (centres unmarked) [Compound 5, N-(2-ethylbutanoyl)-O-(4-(5,6,7,8-tetrahydro-1,8-naphthyridin-2-yl)butyl)homoserine] |
| 250 to 1000 | O=C(NC(CCOCCCCc1ccc2c(n1)NCCC2)C(=O)O)c1ccccc1 (centres unmarked) [Compound 6, N-benzoyl-O-(4-(5,6,7,8-tetrahydro-1,8-naphthyridin-2-yl)butyl)homoserine] |
| 50 to 250 | O=C(NC(CCOCCCCc1ccc2c(n1)NCCC2)C(=O)O)C1CCC(F)(F)CC1 (centres unmarked) [Compound 7, N-(4,4-difluorocyclohexane-1-carbonyl)-O-(4-(5,6,7,8-tetrahydro-1,8-naphthyridin-2-yl)butyl)homoserine] |
| 250 to 1000 | CCCCC(=O)NC(CCOCCCCc1ccc2c(n1)NCCC2)C(=O)O (centres unmarked) [Compound 8, N-pentanoyl-O-(4-(5,6,7,8-tetrahydro-1,8-naphthyridin-2-yl)butyl)homoserine] |
| 50 to 250 | O=C(NC(CCOCCCCc1ccc2c(n1)NCCC2)C(=O)O)c1cc(F)cc(C(F)(F)F)c1 (centres unmarked) [Compound 9, N-(3-fluoro-5-(trifluoromethyl)benzoyl)-O-(4-(5,6,7,8-tetrahydro-1,8-naphthyridin-2-yl)butyl)homoserine] |
| 50 to 250 | O=C(NC(CCOC1CC(CCc2ccc3c(n2)NCCC3)C1)C(=O)O)c1cc(F)cc(C(F)(F)F)c1 (centres unmarked) [Compound 10, N-(3-fluoro-5-(trifluoromethyl)benzoyl)-O-(3-(2-(5,6,7,8-tetrahydro-1,8-naphthyridin-2-yl)ethyl)cyclobutyl)homoserine] |
| 50 to 250 | CCCCC(=O)NC(CCOC1CC(CCc2ccc3c(n2)NCCC3)C1)C(=O)O (centres unmarked) [Compound 11, N-pentanoyl-O-(3-(2-(5,6,7,8-tetrahydro-1,8-naphthyridin-2-yl)ethyl)cyclobutyl)homoserine] |
| < 50 | O=C(N[C@@H](CCO[C@H]1C[C@@H](CCc2ccc3c(n2)NCCC3)C1)C(=O)O)c1cccc(F)c1Cl [Compound 14, N-(2-chloro-3-fluorobenzoyl)-O-(cis-3-(2-(5,6,7,8-tetrahydro-1,8-naphthyridin-2-yl)ethyl)cyclobutyl)homoserine] |
| < 50 | O=C(N[C@@H](CCO[C@H]1C[C@@H](CCc2ccc3c(n2)NCCC3)C1)C(=O)O)c1ccc(F)cc1 [Compound 15, N-(4-fluorobenzoyl)-O-(cis-3-(2-(5,6,7,8-tetrahydro-1,8-naphthyridin-2-yl)ethyl)cyclobutyl)homoserine] |
| < 50 | O=C(N[C@@H](CCO[C@H]1C[C@H](CCc2ccc3c(n2)NCCC3)C1)C(=O)O)c1ccc(F)cc1 [Compound 16, N-(4-fluorobenzoyl)-O-(trans-3-(2-(5,6,7,8-tetrahydro-1,8-naphthyridin-2-yl)ethyl)cyclobutyl)homoserine] |
| < 50 | O=C(N[C@@H](CCO[C@H]1C[C@H](CCc2ccc3c(n2)NCCC3)C1)C(=O)O)c1ccc(Cl)cc1 [Compound 17, N-(4-chlorobenzoyl)-O-(trans-3-(2-(5,6,7,8-tetrahydro-1,8-naphthyridin-2-yl)ethyl)cyclobutyl)homoserine] |
| < 50 | O=C(N[C@@H](CCO[C@H]1C[C@H](CCc2ccc3c(n2)NCCC3)C1)C(=O)O)c1cccc(F)c1 [Compound 19, N-(3-fluorobenzoyl)-O-(trans-3-(2-(5,6,7,8-tetrahydro-1,8-naphthyridin-2-yl)ethyl)cyclobutyl)homoserine] |
| < 50 | O=C(N[C@@H](CCO[C@H]1C[C@H](CCc2ccc3c(n2)NCCC3)C1)C(=O)O)c1cccc(Cl)c1 [Compound 20, N-(3-chlorobenzoyl)-O-(trans-3-(2-(5,6,7,8-tetrahydro-1,8-naphthyridin-2-yl)ethyl)cyclobutyl)homoserine] |
| < 50 | O=C(N[C@@H](CCO[C@H]1C[C@H](CCc2ccc3c(n2)NCCC3)C1)C(=O)O)c1ccccc1Cl [Compound 21, N-(2-chlorobenzoyl)-O-(trans-3-(2-(5,6,7,8-tetrahydro-1,8-naphthyridin-2-yl)ethyl)cyclobutyl)homoserine] |
| < 50 | O=C(N[C@@H](CCO[C@H]1C[C@H](CCc2ccc3c(n2)NCCC3)C1)C(=O)O)c1ccccc1F [Compound 22, N-(2-fluorobenzoyl)-O-(trans-3-(2-(5,6,7,8-tetrahydro-1,8-naphthyridin-2-yl)ethyl)cyclobutyl)homoserine] |
| < 50 | O=C(N[C@@H](CCO[C@H]1C[C@H](CCc2ccc3c(n2)NCCC3)C1)C(=O)O)c1cccc(F)c1F [Compound 23, N-(2,3-difluorobenzoyl)-O-(trans-3-(2-(5,6,7,8-tetrahydro-1,8-naphthyridin-2-yl)ethyl)cyclobutyl)homoserine] |
| < 50 | O=C(N[C@@H](CCO[C@H]1C[C@H](CCc2ccc3c(n2)NCCC3)C1)C(=O)O)c1ccc(F)cc1F [Compound 24, N-(2,4-difluorobenzoyl)-O-(trans-3-(2-(5,6,7,8-tetrahydro-1,8-naphthyridin-2-yl)ethyl)cyclobutyl)homoserine] |
| < 50 | O=C(N[C@@H](CCO[C@H]1C[C@H](CCc2ccc3c(n2)NCCC3)C1)C(=O)O)c1ccc(F)cc1Cl [Compound 25, N-(2-chloro-4-fluorobenzoyl)-O-(trans-3-(2-(5,6,7,8-tetrahydro-1,8-naphthyridin-2-yl)ethyl)cyclobutyl)homoserine] |
| < 50 | O=C(N[C@@H](CCO[C@H]1C[C@H](CCc2ccc3c(n2)NCCC3)C1)C(=O)O)c1cc(F)cc(Cl)c1 [Compound 26, N-(3-chloro-5-fluorobenzoyl)-O-(trans-3-(2-(5,6,7,8-tetrahydro-1,8-naphthyridin-2-yl)ethyl)cyclobutyl)homoserine] |

| Compound | IC50 [nM] |
| --- | --- |
| O=C(N[C@@H](CCO[C@H]1C[C@H](CCc2ccc3c(n2)NCCC3)C1)C(=O)O)c1ccnc2cc[nH]c12 (relative stereo) [Compound 170, N-(1H-pyrrolo[3,2-b]pyridine-7-carbonyl)-O-(trans-3-(2-(5,6,7,8-tetrahydro-1,8-naphthyridin-2-yl)ethyl)cyclobutyl)homoserine] | < 50 |
| O=C(N[C@@H](CCO[C@H]1C[C@H](CCc2ccc3c(n2)NCCC3)C1)C(=O)O)C1CCCc2cn[nH]c21 (relative stereo) [Compound 177, O-(trans-3-(2-(5,6,7,8-tetrahydro-1,8-naphthyridin-2-yl)ethyl)cyclobutyl)-N-(4,5,6,7-tetrahydro-1H-indazole-7-carbonyl)homoserine] | 50 to 250 |
| CC(CO[C@H]1C[C@H](CCc2ccc3c(n2)NCCC3)C1)C(NC(=O)OC(C)(C)C)C(=O)O (single isomer, unassigned) [Example 145A, 2-((tert-butoxycarbonyl)amino)-3-methyl-4-(trans-3-(2-(5,6,7,8-tetrahydro-1,8-naphthyridin-2-yl)ethyl)cyclobutoxy)butanoic Acid] | 250 to 1000 |
| CC(CO[C@H]1C[C@H](CCc2ccc3c(n2)NCCC3)C1)C(NC(=O)OC(C)(C)C)C(=O)O (single isomer, unassigned) [Example 145B, 2-((tert-butoxycarbonyl)amino)-3-methyl-4-(trans-3-(2-(5,6,7,8-tetrahydro-1,8-naphthyridin-2-yl)ethyl)cyclobutoxy)butanoic Acid] | 50 to 250 |
| CC(C)(C)OC(=O)NC(CCOCCCCc1ccc2c(n1)NCCC2)C(=O)O (centres unmarked) [Compound 13, N-(tert-butoxycarbonyl)-O-(4-(5,6,7,8-tetrahydro-1,8-naphthyridin-2-yl)butyl)homoserine] | 250 to 1000 |
| CC(C)(C)OC(=O)N[C@@H](CCO[C@H]1C[C@@H](CCc2ccc3c(n2)NCCC3)C1)C(=O)O [Compound 18, N-(tert-butoxycarbonyl)-O-(cis-3-(2-(5,6,7,8-tetrahydro-1,8-naphthyridin-2-yl)ethyl)cyclobutyl)homoserine] | 50 to 250 |
